Assays:
6×His-CRBN-DDB1 protein = 6×His-CRBN-DDB1 protein (Homo sapiens (Human), UniProt Q96SW2); assay: CRBN fluorescence polarization assay; format: binding; settings: cereblon binding, class symbols; read-out: CRBN FP IC50
Method: 6×His-CRBN-DDB1 protein (200 nM) and Cy5-O-Len probe (30 nM) were combined in 20 mM HEPES pH 7, 150 mM NaCl, 0.005% Tween-20 assay buffer. […] The plates were incubated in the dark for 1 hour at room temperature and then read on an Envision plate reader (PerkinElmer, Massachusetts, USA).

GSPT1 HiBiT tag protein = GSPT1 HiBiT tag protein (Homo sapiens (Human), UniProt P15170+Q96SW2); assay: hGSPT1 HiBiT assay; format: cell-based; settings: HEK293 hGSPT1 HiBiT cells, 4 hrs incubation; read-out: GSPT1 HiBit EC50
Method: hGSPT1 HiBiT cell line. HEK293_hGSPT1_HiBiT tagged cells were generated using CRISPR-Cas12a technology. Briefly, ˜400,000 HEK293 cells were transiently co-transfecting with precomplexed ribonuclear proteins (RNPs) consisting of […] of crRNA (IDT), 62 pmol of Cas12a protein (IDT), 3 ug of ssODN donor (IDT; AltR™ modifications), 78 pmol of electroporation enhancer (IDT), and 200 ng of pMaxGFP (Lonza). The transfection was performed via nucleofection (Lonza, 4D-Nucleofector™ X-unit) using solution P3 and program CM-130 in a small (20 ul) cuvette according to the manufacturer's recommended protocol. Five days post-nucleofection, cells were single cell sorted for GFP+(transfected) cells by FACs in 96-well plates and clonally selected. Clones were screened and verified for the desired modification via targeted deep sequencing using gene specific primers with partial Illumina adapter overhangs as previously described.^58 In brief, clonal cell pellets were harvested, lysed and used to generate gene specific amplicons with partial Illumina adapters in PCR #1. Amplicons were indexed in PCR #2 and pooled with other targeted amplicons for other loci to create sequence diversity. Additionally, 10% PhiX Sequencing Control V3 (Illumina) was added to the pooled amplicon library prior to running the sample on an Miseq Sequencer System (Illumina) to generate paired 2×250 bp reads. […] Editing construct sequences and screening primers are listed below in Table 4.
hGSPT1 HiBiT assay. […] After 4 hrs incubation, the level of GSPT1 HiBiT tag protein was evaluated using Nano-Glo® HiBiT Lytic Detection System (Promega) according to the manufacturer's instruction.

6×His-CRBN-DDB1 protein, sequence (Q96SW2 whole entry): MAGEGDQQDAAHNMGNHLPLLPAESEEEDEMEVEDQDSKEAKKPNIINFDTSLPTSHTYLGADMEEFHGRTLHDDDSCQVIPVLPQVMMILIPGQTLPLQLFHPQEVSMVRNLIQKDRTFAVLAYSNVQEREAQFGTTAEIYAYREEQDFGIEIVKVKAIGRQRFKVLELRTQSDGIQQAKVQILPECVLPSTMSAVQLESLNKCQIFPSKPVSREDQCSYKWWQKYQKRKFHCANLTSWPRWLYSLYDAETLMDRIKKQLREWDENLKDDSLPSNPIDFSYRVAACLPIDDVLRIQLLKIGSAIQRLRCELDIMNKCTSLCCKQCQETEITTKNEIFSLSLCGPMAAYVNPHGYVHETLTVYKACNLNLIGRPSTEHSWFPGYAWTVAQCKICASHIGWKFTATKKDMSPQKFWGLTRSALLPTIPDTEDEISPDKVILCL
6×His-CRBN-DDB1 protein, sequence (Q16531 whole entry partner): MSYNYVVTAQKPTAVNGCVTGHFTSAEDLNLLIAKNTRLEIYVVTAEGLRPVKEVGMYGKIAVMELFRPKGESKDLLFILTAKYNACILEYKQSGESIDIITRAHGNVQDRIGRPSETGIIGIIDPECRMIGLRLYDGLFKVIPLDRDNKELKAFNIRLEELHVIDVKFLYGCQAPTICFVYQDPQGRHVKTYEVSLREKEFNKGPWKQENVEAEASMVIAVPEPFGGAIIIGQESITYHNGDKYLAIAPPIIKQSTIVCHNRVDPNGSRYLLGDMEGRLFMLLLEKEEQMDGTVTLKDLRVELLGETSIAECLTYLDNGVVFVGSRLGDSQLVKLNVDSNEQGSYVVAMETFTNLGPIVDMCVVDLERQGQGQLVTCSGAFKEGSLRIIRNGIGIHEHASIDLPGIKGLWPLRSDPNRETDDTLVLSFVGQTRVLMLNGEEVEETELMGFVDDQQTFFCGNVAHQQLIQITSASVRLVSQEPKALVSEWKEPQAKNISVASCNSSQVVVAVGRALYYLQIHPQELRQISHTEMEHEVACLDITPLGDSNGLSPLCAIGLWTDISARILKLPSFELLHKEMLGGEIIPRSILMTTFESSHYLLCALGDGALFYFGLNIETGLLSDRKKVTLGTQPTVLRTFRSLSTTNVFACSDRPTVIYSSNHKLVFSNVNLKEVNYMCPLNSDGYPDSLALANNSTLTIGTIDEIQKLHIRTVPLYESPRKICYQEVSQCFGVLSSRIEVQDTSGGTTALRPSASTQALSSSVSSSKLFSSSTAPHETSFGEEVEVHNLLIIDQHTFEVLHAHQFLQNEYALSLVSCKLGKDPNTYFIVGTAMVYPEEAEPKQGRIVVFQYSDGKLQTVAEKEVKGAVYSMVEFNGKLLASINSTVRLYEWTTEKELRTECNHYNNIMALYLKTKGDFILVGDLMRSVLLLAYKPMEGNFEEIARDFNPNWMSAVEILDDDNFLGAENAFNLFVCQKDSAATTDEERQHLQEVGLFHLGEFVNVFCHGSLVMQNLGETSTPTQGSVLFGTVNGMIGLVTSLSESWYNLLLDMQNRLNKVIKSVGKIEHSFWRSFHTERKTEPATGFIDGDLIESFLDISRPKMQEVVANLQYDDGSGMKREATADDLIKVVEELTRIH
GSPT1 HiBiT tag protein, sequence (P15170 whole entry): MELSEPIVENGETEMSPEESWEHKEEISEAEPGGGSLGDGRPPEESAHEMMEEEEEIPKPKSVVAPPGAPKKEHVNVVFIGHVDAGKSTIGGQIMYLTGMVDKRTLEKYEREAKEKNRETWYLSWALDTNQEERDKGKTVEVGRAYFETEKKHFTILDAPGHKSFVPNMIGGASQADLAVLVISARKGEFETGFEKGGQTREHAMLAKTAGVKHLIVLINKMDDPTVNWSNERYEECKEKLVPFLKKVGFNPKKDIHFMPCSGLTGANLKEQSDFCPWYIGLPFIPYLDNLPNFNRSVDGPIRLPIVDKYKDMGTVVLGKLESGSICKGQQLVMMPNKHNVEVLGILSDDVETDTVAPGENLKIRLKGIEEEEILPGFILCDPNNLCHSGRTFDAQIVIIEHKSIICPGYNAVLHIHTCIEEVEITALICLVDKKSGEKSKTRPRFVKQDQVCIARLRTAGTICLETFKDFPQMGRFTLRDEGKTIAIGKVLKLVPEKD
GSPT1 HiBiT tag protein, sequence (Q96SW2 whole entry): as the sequence (Q96SW2 whole entry) above
GSPT1 HiBiT tag protein, sequence (Q16531 whole entry partner): as the sequence (Q16531 whole entry partner) above

IC50 (6×His-CRBN-DDB1 protein) [nM] | DC50 (GSPT1 HiBiT tag protein) [nM] | Structure (SMILES)
< 1000 | < 1000 | O=C1CCC(N2C(=O)c3ccc(NS(=O)(=O)c4ccccc4Br)cc3C2=O)C(=O)N1 (stereo not drawn) [Compound 98, 2-bromo-N-(2-(2,6-dioxopiperidin-3-yl)-1,3-dioxoisoindolin-5-yl)benzenesulfonamide]
< 1000 | > 10000 | O=C1CCC(N2C(=O)c3ccc(NS(=O)(=O)c4ccc(Cl)c(Cl)c4)cc3C2=O)C(=O)N1 (stereo not drawn) [Compound 71, 3,4-dichloro-N-(2-(2,6-dioxopiperidin-3-yl)-1,3-dioxoisoindolin-5-yl)benzenesulfonamide]
< 1000 | > 10000 | O=C1CCC(N2C(=O)c3ccc(NS(=O)(=O)c4ccccc4F)cc3C2=O)C(=O)N1 (stereo not drawn) [Compound 82, N-(2-(2,6-dioxopiperidin-3-yl)-1,3-dioxoisoindolin-5-yl)-2-fluorobenzenesulfonamide]
< 1000 | > 10000 | O=C1CCC(N2C(=O)c3ccc(NS(=O)(=O)c4cc5ccccc5s4)cc3C2=O)C(=O)N1 (stereo not drawn) [Compound 87, N-(2-(2,6-dioxopiperidin-3-yl)-1,3-dioxoisoindolin-5-yl)benzo[b]thiophene-2-sulfonamide]
1000 to 10000 | > 10000 | Cc1ccc(S(=O)(=O)Nc2ccc3c(c2)C(=O)N(C2CCC(=O)NC2=O)C3=O)cc1 (stereo not drawn) [Compound 21, N-(2-(2,6-dioxopiperidin-3-yl)-1,3-dioxoisoindolin-5-yl)-4-methylbenzenesulfonamide]
1000 to 10000 | > 10000 | O=C1CCC(N2C(=O)c3ccc(NS(=O)(=O)c4ccc(O)cc4)cc3C2=O)C(=O)N1 (stereo not drawn) [Compound 92, N-(2-(2,6-dioxopiperidin-3-yl)-1,3-dioxoisoindolin-5-yl)-4-hydroxybenzenesulfonamide]
< 1000 | > 10000 | O=C1CCC(N2C(=O)c3ccc(NS(=O)(=O)c4cccs4)cc3C2=O)C(=O)N1 (stereo not drawn) [Compound 18, N-(2-(2,6-dioxopiperidin-3-yl)-1,3-dioxoisoindolin-5-yl)thiophene-2-sulfonamide]
< 1000 | > 10000 | Cc1ccc(F)c(S(=O)(=O)Nc2ccc3c(c2)C(=O)N(C2CCC(=O)NC2=O)C3=O)c1 (stereo not drawn) [Compound 10, N-(2-(2,6-dioxopiperidin-3-yl)-1,3-dioxoisoindolin-5-yl)-2-fluoro-5-methylbenzenesulfonamide]
 | > 10000 | O=C1CCC(N2C(=O)c3ccc(NS(=O)(=O)c4ccc(C(F)(F)F)cc4)cc3C2=O)C(=O)N1 (stereo not drawn) [Compound 8, N-(2-(2,6-dioxopiperidin-3-yl)-1,3-dioxoisoindolin-5-yl)-4-(trifluoromethyl)benzenesulfonamide]
< 1000 | < 1000 | Cc1cc(S(=O)(=O)Nc2ccc3c(c2)C(=O)N(C2CCC(=O)NC2=O)C3=O)c(C)cc1Cl (stereo not drawn) [Compound 77, 4-chloro-N-(2-(2,6-dioxopiperidin-3-yl)-1,3-dioxoisoindolin-5-yl)-2,5-dimethylbenzenesulfonamide]
1000 to 10000 | > 10000 | Cc1ccccc1CS(=O)(=O)Nc1ccc2c(c1)C(=O)N(C1CCC(=O)NC1=O)C2=O (stereo not drawn) [Compound 90, N-(2-(2,6-dioxopiperidin-3-yl)-1,3-dioxoisoindolin-5-yl)-1-(o-tolyt)methanesulfonamide]
< 1000 | > 10000 | O=C1CCC(N2C(=O)c3ccc(NS(=O)(=O)c4ccc(F)c(Cl)c4)cc3C2=O)C(=O)N1 (stereo not drawn) [Compound 17, 3-chloro-N-(2-(2,6-dioxopiperidin-3-yl)-1,3-dioxoisoindolin-5-yl)-4-fluorobenzenesulfonamide]
< 1000 |  | Cc1ccc(S(=O)(=O)Nc2ccc3c(c2)C(=O)N(C2CCC(=O)NC2=O)C3)cc1Cl (stereo not drawn) [Compound 33, 3-chloro-N-(2-(2,6-dioxopiperidin-3-yl)-3-oxoisoindolin-5-yl)-4-methylbenzenesulfonamide]
< 1000 |  | Cc1ccc(S(=O)(=O)Nc2ccc3c(c2)C(=O)N(C2CCC(=O)NC2=O)C3)cc1 (stereo not drawn) [Compound 25, N-(2-(2,6-dioxopiperidin-3-yl)-3-oxoisoindolin-5-yl)-4-methylbenzenesulfonamide]
1000 to 10000 |  | O=C1CCC(N2C(=O)c3ccc(NS(=O)(=O)c4ccc(F)cc4F)cc3C2=O)C(=O)N1 (stereo not drawn) [Compound 74, N-(2-(2,6-dioxopiperidin-3-yl)-1,3-dioxoisoindolin-5-yl)-2,4-difluorobenzenefylfonamide]
< 1000 |  | O=C1CCC(N2Cc3ccc(NS(=O)(=O)c4ccccc4C(F)(F)F)cc3C2=O)C(=O)N1 (stereo not drawn) [Compound 28, N-(2-(2,6-dioxopiperidin-3-yl)-3-oxoisoindolin-5-yl)-2-(trifluoromethyl)benzenesulfonamide]
< 1000 |  | Cc1cccc(S(=O)(=O)Nc2ccc3c(c2)C(=O)N(C2CCC(=O)NC2=O)C3=O)c1 (stereo not drawn) [Compound 19, N-(2-(2,6-dioxopiperidin-3-yl)-1,3-dioxoisoindolin-5-yl)-3-methylbenzenesulfonamide]
< 1000 |  | COc1ccc(S(=O)(=O)Nc2ccc3c(c2)CN(C2CCC(=O)NC2=O)C3=O)cc1 (stereo not drawn) [Compound 40, N-(2-(2,6-dioxopiperidin-3-yl)-1-oxoisoindolin-5-yl)-4-methoxybenzenesulfonamide]
< 1000 |  | CC(C)c1ccc(S(=O)(=O)Nc2ccc3c(c2)C(=O)N(C2CCC(=O)NC2=O)C3)cc1 (stereo not drawn) [Compound 30, N-(2-(2,6-dioxopiperidin-3-yl)-3-oxoisoindolin-5-yl)-4-isopropylbenzenesulfonamide]
< 1000 |  | O=C1CCC(N2C(=O)c3ccc(NS(=O)(=O)c4ccc5ncsc5c4)cc3C2=O)C(=O)N1 (stereo not drawn) [Compound 86, N-(2-(2,6-dioxopiperidin-3-yl)-1,3-dioxoisoindolin-5-yl)benzo[d]thiazole-6-sulfonamide]
1000 to 10000 |  | O=C1CCC(N2Cc3ccc(NS(=O)(=O)c4ccc(F)c(Cl)c4)cc3C2=O)C(=O)N1 (stereo not drawn) [Compound 31, 3-chloro-N-(2-(2,6-dioxopiperidin-3-yl)-3-oxoisoindolin-5-yl)-4-fluorobenzenesulfonamide]
< 1000 |  | Cc1ccc(S(=O)(=O)Nc2ccc3c(c2)CN(C2CCC(=O)NC2=O)C3=O)cc1Cl (stereo not drawn) [Compound 52, 3-chloro-N-(2-(2,6-dioxopiperidin-3-yl)-1-oxoisoindolin-5-yl)-4-methylbenzenesulfonamide]
 | > 10000 | O=C1CCC(N2C(=O)c3ccc(NS(=O)(=O)c4ccc(Cl)c(C(F)(F)F)c4)cc3C2=O)C(=O)N1 (stereo not drawn) [Compound 70, 4-chloro-N-(2-(2,6-dioxopiperidin-3-yl)-1,3-dioxoisoindolin-5-yl)-3-(trifluoromethyl)benzenesulfonamide]
< 1000 |  | Cc1c(Cl)cccc1S(=O)(=O)Nc1ccc2c(c1)CN(C1CCC(=O)NC1=O)C2=O (stereo not drawn) [Compound 55, 3-chloro-N-(2-(2,6-dioxopiperidin-3-yl)-1-oxoisoindolin-5-yl)-2-methylbenzenesulfonamide]
< 1000 |  | Cc1ccc(S(=O)(=O)Nc2ccc3c(c2)C(=O)N(C2CCC(=O)NC2=O)C3=O)cc1C (stereo not drawn) [Compound 93, N-(2-(2,6-dioxopiperidin-3-yl)-1,3-dioxoisoindolin-5-yl)-3,4-dimethylbenzenesulfonamide]
< 1000 |  | Cc1cc(S(=O)(=O)Nc2ccc3c(c2)C(=O)N(C2CCC(=O)NC2=O)C3=O)c(C)o1 (stereo not drawn) [Compound 84, N-(2-(2,6-dioxopiperidin-3-yl)-1,3-dioxoisoindolin-5-yl)-2,5-dimethylfuran-3-sulfonamide]
1000 to 10000 |  | O=C1CCC(N2C(=O)c3ccc(NS(=O)(=O)c4cccnc4)cc3C2=O)C(=O)N1 (stereo not drawn) [Compound 85, N-(2-(2,6-dioxopiperidin-3-yl)-1,3-dioxoisoindolin-5-yl)pyridine-3-sulfonamide]
< 1000 |  | CC(=O)Nc1ccc(S(=O)(=O)Nc2ccc3c(c2)C(=O)N(C2CCC(=O)NC2=O)C3=O)cc1 (stereo not drawn) [Compound 13, N-(4-(N-(2-(2,6-dioxopiperidin-3-yl)-1,3-dioxoisoindolin-5-yl)sulfamoyl)phenyl)acetamide]

Structure (SMILES) | IC50 (6×His-CRBN-DDB1 protein) [nM] | DC50 (GSPT1 HiBiT tag protein) [nM]
COc1ccccc1S(=O)(=O)Nc1ccc2c(c1)C(=O)N(C1CCC(=O)NC1=O)C2=O (stereo not drawn) [Compound 100, N-(2-(2,6-dioxopiperidin-3-yl)-1,3-dioxoisoindolin-5-yl)-2-methoxybenzenesulfonamide] | < 1000 | > 10000
O=C1CCC(N2C(=O)c3ccc(NS(=O)(=O)c4ccccc4C(F)(F)F)cc3C2=O)C(=O)N1 (stereo not drawn) [Compound 99, N-(2-(2,6-dioxopiperidin-3-yl)-1,3-dioxoisoindolin-5-yl)-2-(trifluoromethyl)benzenesulfonamide] | < 1000 | < 1000
O=C1CCC(N2C(=O)c3ccc(NS(=O)(=O)c4cccc(Cl)c4)cc3C2=O)C(=O)N1 (stereo not drawn) [Compound 95, 3-chloro-N-(2-(2,6-dioxopiperidin-3-yl)-1,3-dioxoisoindolin-5-yl)benzenesulfonamide] | < 1000 | > 10000

Source: US20240132463A1, “SUBSTITUTED N-(2-(2,6-DIOXOPIPERIDIN-3-YL)-1,3-DIOXOISOINDOLIN-5-YL)ARYLSULFONAMIDE ANALOGS AS MODULATORS OF CEREBLON PROTEIN” (ST. JUDE CHILDREN'S RESEARCH HOSPITAL, INC., priority 2020, published 2024)
